“And” between values parts separate entries of the source, which are not always exact repeats. Identical values can stand only once. Inconclusive results and toxic doses are left out.
Tested on: P388 leukemia ip, CD2F1 mice, survival T/C
Assay: NCI In Vivo Anticancer Drug Screen. Data for tumor model P388 Leukemia (intraperitoneal) in CD2F1 (CDF1) mice
Settings: endpoint: median survival time, higher = longer survival
Method in brief: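 Mice carrying the transplanted tumor received test compound or vehicle. Survival was recorded in each group, and the value is the treated-group measurement divided by that of the vehicle-treated control group.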

[1] = dose: 25.0 mg/kg/injection, schedule: Q01DX005 (ip), vehicle: saline
[2] = dose: 50.0 mg/kg/injection, schedule: Q01DX005 (ip), vehicle: saline
[3] = dose: 50.0 mg/kg/injection, schedule: Q01DX005 (ip), vehicle: saline with Tween-80
[4] = dose: 100.0 mg/kg/injection, schedule: Q01DX005 (ip), vehicle: saline with Tween-80
[5] = dose: 200.0 mg/kg/injection, schedule: Q01DX005 (ip), vehicle: saline with Tween-80
[6] = dose: 50.0 mg/kg/injection, schedule: Q01DX009 (ip), vehicle: Klucel (hydroxypropylcellulose) (HPC)
[7] = dose: 100.0 mg/kg/injection, schedule: Q01DX009 (ip), vehicle: Klucel (hydroxypropylcellulose) (HPC)
[8] = dose: 25.0 mg/kg/injection, schedule: Q01DX009 (ip), vehicle: Klucel (hydroxypropylcellulose) (HPC)
[9] = dose: 60.0 mg/kg/injection, schedule: Q01DX005 (ip), vehicle: saline with Tween-80
[10] = dose: 120.0 mg/kg/injection, schedule: Q01DX005 (ip), vehicle: saline with Tween-80
[11] = dose: 240.0 mg/kg/injection, schedule: Q01DX005 (ip), vehicle: saline with Tween-80

Compound: CN(C)Cc1cn(C)c2ccccc12
- T/C (dose: 12.5 mg/kg/injection, schedule: Q01DX005 (ip), vehicle: saline): 99 % of control
- T/C [1]: 93 % of control
- T/C [2]: 98 % of control and 95 % of control

Compound: CC(C)NC(=S)S
- T/C (dose: 25.0 mg/kg/injection, schedule: Q01DX009 (ip), vehicle: saline sonified): 104 % of control
- T/C (dose: 50.0 mg/kg/injection, schedule: Q01DX009 (ip), vehicle: saline sonified): 100 % of control
- T/C (dose: 100.0 mg/kg/injection, schedule: Q01DX009 (ip), vehicle: saline sonified): 109 % of control

Compound: CCN1CC2(COC)C(O)CC(OC)C34C5CC6(O)C(OC)C=C(C5C6OC(=O)c5ccc(OC)c(OC)c5)C(C(OC)C23)C14 (stereo unspecified)
- T/C (dose: 0.05 mg/kg/injection, schedule: Q01DX009 (ip), vehicle: Klucel (hydroxypropylcellulose) (HPC)): 90 % of control
- T/C (dose: 0.05 mg/kg/injection, schedule: Q01DX009 (ip), vehicle: saline with Tween-80): 102 % of control
- T/C (dose: 0.1 mg/kg/injection, schedule: Q01DX009 (ip), vehicle: Klucel (hydroxypropylcellulose) (HPC)): 91 % of control
- T/C (dose: 0.1 mg/kg/injection, schedule: Q01DX009 (ip), vehicle: saline with Tween-80): 96 % of control
- T/C (dose: 0.2 mg/kg/injection, schedule: Q01DX009 (ip), vehicle: Klucel (hydroxypropylcellulose) (HPC)): 100 % of control
- T/C (dose: 0.2 mg/kg/injection, schedule: Q01DX009 (ip), vehicle: saline with Tween-80): 91 % of control
- T/C (dose: 0.4 mg/kg/injection, schedule: Q01DX009 (ip), vehicle: Klucel (hydroxypropylcellulose) (HPC)): 116 % of control
- T/C (dose: 0.4 mg/kg/injection, schedule: Q01DX009 (ip), vehicle: saline with Tween-80): 91 % of control

Compound: CC12CCC(O)CC1CCC1C2CCC2(C)C(c3ccc(=O)oc3)CCC12O (stereo unspecified)
- T/C (dose: 0.31 mg/kg/injection, schedule: Q01DX009 (ip), vehicle: saline with Tween-80): 100 % of control
- T/C (dose: 0.62 mg/kg/injection, schedule: Q01DX009 (ip), vehicle: saline with Tween-80): 97 % of control
- T/C (dose: 1.25 mg/kg/injection, schedule: Q01DX009 (ip), vehicle: saline with Tween-80): 97 % of control
- T/C (dose: 2.5 mg/kg/injection, schedule: Q01DX009 (ip), vehicle: saline with Tween-80): 103 % of control

Compound: O=C1C(c2ccccc2)=C(c2ccccc2)/C1=C/c1ccc(Cl)cc1
- T/C (dose: 100.0 mg/kg/injection, schedule: Q01DX001 (ip), vehicle: Klucel (hydroxypropylcellulose) (HPC)): 101 % of control
- T/C (dose: 200.0 mg/kg/injection, schedule: Q01DX001 (ip), vehicle: Klucel (hydroxypropylcellulose) (HPC)): 105 % of control
- T/C (dose: 400.0 mg/kg/injection, schedule: Q01DX001 (ip), vehicle: Klucel (hydroxypropylcellulose) (HPC)): 104 % of control

Compound: COC1=NO[C@@H]2C=CO[C@H]12
- T/C [3]: 105 % of control
- T/C [4]: 100 % of control
- T/C [5]: 93 % of control

Compound: COc1ccc(/C=C2\SC(=S)NC2=O)cc1OC
- T/C [6]: 94 % of control
- T/C [7]: 92 % of control
- T/C (dose: 200.0 mg/kg/injection, schedule: Q01DX009 (ip), vehicle: Klucel (hydroxypropylcellulose) (HPC)): 94 % of control
- T/C (dose: 400.0 mg/kg/injection, schedule: Q01DX009 (ip), vehicle: Klucel (hydroxypropylcellulose) (HPC)): 91 % of control

Compound: C=C1CCN(c2cccc(Cl)c2)C1=O
- T/C (dose: 4.0 mg/kg/injection, schedule: Q01DX009 (ip), vehicle: saline + alcohol): 96 % of control
- T/C (dose: 8.0 mg/kg/injection, schedule: Q01DX009 (ip), vehicle: saline + alcohol): 101 % of control
- T/C (dose: 16.0 mg/kg/injection, schedule: Q01DX009 (ip), vehicle: saline + alcohol): 100 % of control
- T/C (dose: 32.0 mg/kg/injection, schedule: Q01DX009 (ip), vehicle: saline + alcohol): 105 % of control
- T/C (dose: 64.0 mg/kg/injection, schedule: Q01DX009 (ip), vehicle: saline + alcohol): 100 % of control

Compound: CC1=C/C(O)CC(=O)Cc2nc(co2)C(=O)N2CCC=C2C(=O)OC(C(C)C)C(C)/C=C\C(=O)NC/C=C\1 (stereo unspecified)
- T/C (dose: 200.0 mg/kg/injection, schedule: Q01DX005 (ip), vehicle: Klucel (hydroxypropylcellulose) (HPC)): 111 % of control
- T/C (dose: 400.0 mg/kg/injection, schedule: Q01DX005 (ip), vehicle: Klucel (hydroxypropylcellulose) (HPC)): 114 % of control
- T/C (dose: 1.0 micrograms/kg/injection, schedule: Q01DX009 (ip), vehicle: Klucel (hydroxypropylcellulose) (HPC)): 104 % of control and 107 % of control and 115 % of control
- T/C (dose: 2.0 micrograms/kg/injection, schedule: Q01DX009 (ip), vehicle: Klucel (hydroxypropylcellulose) (HPC)): 111 % of control and 114 % of control and 121 % of control
- T/C (dose: 4.0 micrograms/kg/injection, schedule: Q01DX009 (ip), vehicle: Klucel (hydroxypropylcellulose) (HPC)): 111 % of control and 112 % of control and 121 % of control
- T/C (dose: 8.0 micrograms/kg/injection, schedule: Q01DX009 (ip), vehicle: Klucel (hydroxypropylcellulose) (HPC)): 104 % of control and 111 % of control and 123 % of control

Compound: Cc1cc(C)c(S(=O)(=O)OCC2OC(OC3(COS(=O)(=O)c4c(C)cc(C)cc4C)OC(COS(=O)(=O)c4c(C)cc(C)cc4C)C(O)C3O)C(O)C(O)C2O)c(C)c1 (stereo unspecified)
- T/C [8]: 107 % of control
- T/C [6]: 99 % of control

Compound: CCCCCC(=O)C(C)(c1nc2nnc(NC(=O)Nc3ccc(Cl)cc3)n2[nH]c1=O)c1nc2nnc(NC(=O)Nc3ccc(Cl)cc3)n2[nH]c1=O
- T/C [9]: 103 % of control
- T/C [10]: 98 % of control
- T/C [11]: 97 % of control

Compound: NCCCNCCCCNC(=O)C(O)NC(=O)CC(O)CCCCN=C(N)N (stereo unspecified)
- T/C (dose: 6.25 mg/kg/injection, schedule: Q01DX005 (ip), vehicle: saline): 152 % of control
- T/C [1]: 160 % of control
- T/C [2]: 150 % of control and 154 % of control
- T/C (dose: 100.0 mg/kg/injection, schedule: Q01DX005 (ip), vehicle: saline): 156 % of control and 169 % of control

Compound: CCOC(=O)[C@H]1CC[C@@H](C(=O)OCC)N1Sc1ccc([N+](=O)[O-])cc1[N+](=O)[O-]
- T/C [3]: 102 % of control
- T/C [4]: 102 % of control
- T/C [5]: 102 % of control

Compound: OCC1(C(O)(C2CC2)C2(CO)CC2)CC1
- T/C [3]: 105 % of control
- T/C [4]: 105 % of control
- T/C [5]: 100 % of control

Compound: COc1ccc(S(=O)(=O)N/N=C/C(=O)O)cc1
- T/C (dose: 6.25 mg/kg/injection, schedule: Q01DX009 (ip), vehicle: other): 116 % of control
- T/C (dose: 12.5 mg/kg/injection, schedule: Q01DX005 (ip), vehicle: saline with Tween-80): 118 % of control
- T/C (dose: 25.0 mg/kg/injection, schedule: Q01DX009 (ip), vehicle: other): 162 % of control
- T/C (dose: 50.0 mg/kg/injection, schedule: Q01DX005 (ip), vehicle: distilled water + Tween-80): 154 % of control
- T/C (dose: 50.0 mg/kg/injection, schedule: Q01DX009 (ip), vehicle: other): 158 % of control and 159 % of control
- T/C (dose: 100.0 mg/kg/injection, schedule: Q01DX005 (ip), vehicle: distilled water + Tween-80): 182 % of control

Compound: N#Cc1ncc(-c2ccccc2)nc1Cl
- T/C (dose: 6.25 mg/kg/injection, schedule: Q01DX009 (ip), vehicle: saline with Tween-80): 100 % of control
- T/C (dose: 12.5 mg/kg/injection, schedule: Q01DX009 (ip), vehicle: saline with Tween-80): 104 % of control
- T/C (dose: 25.0 mg/kg/injection, schedule: Q01DX009 (ip), vehicle: saline with Tween-80): 100 % of control
- T/C (dose: 50.0 mg/kg/injection, schedule: Q01DX009 (ip), vehicle: saline with Tween-80): 110 % of control
- T/C (dose: 50.0 mg/kg/injection, schedule: Q04DX003 (ip), vehicle: saline with Tween-80): 100 % of control
- T/C (dose: 100.0 mg/kg/injection, schedule: Q01DX009 (ip), vehicle: saline with Tween-80): 120 % of control
- T/C (dose: 100.0 mg/kg/injection, schedule: Q04DX003 (ip), vehicle: saline with Tween-80): 105 % of control
- T/C (dose: 200.0 mg/kg/injection, schedule: Q04DX003 (ip), vehicle: saline with Tween-80): 100 % of control

Compound: CC(=O)O/C(C)=C1\CCn2c1nc1ccccc1c2=O
- T/C [9]: 104 % of control
- T/C [10]: 107 % of control
- T/C [11]: 101 % of control

Compound: C=C(OP(=O)(OC)OC)Sc1ccccc1C
- T/C (dose: 0.04 mg/kg/injection, schedule: Q01DX005 (ip), vehicle: Klucel (hydroxypropylcellulose) (HPC)): 105 % of control
- T/C (dose: 0.09 mg/kg/injection, schedule: Q01DX005 (ip), vehicle: Klucel (hydroxypropylcellulose) (HPC)): 100 % of control
- T/C (dose: 0.18 mg/kg/injection, schedule: Q01DX005 (ip), vehicle: Klucel (hydroxypropylcellulose) (HPC)): 106 % of control
- T/C (dose: 0.37 mg/kg/injection, schedule: Q01DX005 (ip), vehicle: Klucel (hydroxypropylcellulose) (HPC)): 92 % of control
- T/C (dose: 0.75 mg/kg/injection, schedule: Q01DX005 (ip), vehicle: Klucel (hydroxypropylcellulose) (HPC)): 100 % of control
- T/C (dose: 1.5 mg/kg/injection, schedule: Q01DX005 (ip), vehicle: Klucel (hydroxypropylcellulose) (HPC)): 96 % of control
- T/C (dose: 12.5 mg/kg/injection, schedule: Q01DX009 (ip), vehicle: Klucel (hydroxypropylcellulose) (HPC)): 100 % of control and 97 % of control
- T/C [8]: 102 % of control and 116 % of control
- T/C [6]: 111 % of control and 121 % of control
- T/C [7]: 105 % of control and 92 % of control

Reference: PubChem BioAssay AID330 (DTP/NCI, 2004)
